Target: T1, KRAS (aa 1-169) G12C, C51S, C80L, C118S (Homo sapiens, UniProt P01116, C118S/C51S/C80L/G12C)
T1 construct: The KRAS (aa 1-169) G12C, C51S, C80L, C118S with a His-tag; made in house
Assay: KRAS G12C SOS1-mediated nucleotide exchange / GST-cRaf RBD binding FRET assay
Assay type: biochemical
Details: GDP-loaded KRAS G12C pre-incubated with compound at 24° C. for 3 hrs; SOS1, GTPγS and GST-cRaf RBD added; FRET 665 nm/620 nm
Method: Biochemical Functional Assay:
The KRAS (aa 1-169) G12C, C51S, C80L, C118S with a His-tag was expressed, purified and loaded with GDP in house. All protein and substrate solutions were prepared in assay buffer containing 25 mM HEPES pH7.5, 10 mM MgCl2, and 0.01% Triton X-100. Purified GDP-loaded KRAS (aa 1-169) G12C, C51S, C80L, C118S protein was pre-incubated with a serially diluted compound at 24° C. for 3 hrs. Purified SOS1 (aa 564-1049) protein, GTPγS (Sigma) and GST-cRaf RBD (aa 1-149) were then added to each well and incubated at 24° C. for additional 3 hrs. […] Following the incubation, Mab Anti-6HIS-Tb cryptate (Cisbio) and Mab Anti GST-XL665 (Cisbio) were added and further incubated at 24° C. for 3 hrs. The binding interaction between active GTPγS KRAS G12C and GST-cRaf RBD brings the Tb and XL665 into close proximity enabling an increased FRET signal (Ex337 nm, Em665 nm/620 nm). The inhibition percentage of nucleotide exchange reaction in presence of increasing concentrations of compounds was calculated based on the ratio of fluorescence at 665 nm to that at 620 nm detected on a BMG PHERAstar FSX instrument. The IC50 value of each compound was calculated from fitting the data to the four-parameter logistic model by Dotmatics.

T1 sequence (P01116 1-169 isoform P01116-2 G12C/C51S/C80L/C118S): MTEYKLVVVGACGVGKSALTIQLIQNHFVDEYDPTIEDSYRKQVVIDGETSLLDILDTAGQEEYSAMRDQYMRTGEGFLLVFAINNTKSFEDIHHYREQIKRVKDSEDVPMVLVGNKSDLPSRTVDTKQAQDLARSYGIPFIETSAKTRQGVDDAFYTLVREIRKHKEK

| Compound | IC50 [nM] |
| --- | --- |
| C=CC(=O)N1CCN(c2nc(OC[C@@H]3CCCN3C)nc3c2CN(Cc2cc(O)ccc2F)C3)C[C@@H]1CC#N [Example 22, 2-((S)-1-acryloyl-4-(6-(2-fluoro-5-hydroxybenzyl)-2-(((S)-1-methylpyrrolidin-2-yl)methoxy)-6,7-dihydro-5H-pyrrolo[3,4-d]pyrimidin-4-yl)piperazin-2-yl)acetonitrile] | 9.63 |
| C=CC(=O)N1CCN(c2nc(OC[C@@H]3CCCN3C)nc3c2CN(Cc2c(O)cccc2F)C3)C[C@@H]1CC#N [Example 23, 2-((S)-1-acryloyl-4-(6-(2-fluoro-6-hydroxybenzyl)-2-(((S)-1-methylpyrrolidin-2-yl)methoxy)-6,7-dihydro-5H-pyrrolo[3,4-d]pyrimidin-4-yl)piperazin-2-yl)acetonitrile] | 28.1 |
| C=CC(=O)N1CCN(c2nc(OC[C@@H]3CCCN3C)nc3c2CN(Cc2cccc4cccc(O)c24)C3)C[C@@H]1CC#N [Example 24, 2-((S)-1-acryloyl-4-(6-((8-hydroxynaphthalen-1-yl)methyl)-2-(((S)-1-methylpyrrolidin-2-yl)methoxy)-6,7-dihydro-5H-pyrrolo[3,4-d]pyrimidin-4-yl)piperazin-2-yl)acetonitrile] | 101 |
| C=CC(=O)N1CCN(c2nc(OC[C@@H]3CCCN3C)nc3c2CN(Cc2cc(O)cc4ccccc24)C3)C[C@@H]1CC#N [Example 25, 2-((S)-1-acryloyl-4-(6-((3-hydroxynaphthalen-1-yl)methyl)-2-(((S)-1-methylpyrrolidin-2-yl)methoxy)-6,7-dihydro-5H-pyrrolo[3,4-d]pyrimidin-4-yl)piperazin-2-yl)acetonitrile] | 3.27 |
| C=CC(=O)N1CCN(c2nc(OC[C@@H]3CCCN3C)nc3c2CN(c2ccc4ccccc4c2)C3)C[C@@H]1CC#N [Example 26] | 1080 |
| C=CC(=O)N1CCN(c2nc(OC[C@@H]3CCCN3C)nc3c2CN(c2cccc4c2CCC4)C3)C[C@@H]1CC#N [Example 27, 2-((S)-1-acryloyl-4-(6-(2,3-dihydro-1H-inden-4-yl)-2-(((S)-1-methylpyrrolidin-2-yl)methoxy)-6,7-dihydro-5H-pyrrolo[3,4-d]pyrimidin-4-yl)piperazin-2-yl)acetonitrile] | 3720 |
| C=CC(=O)N1CCN(c2nc(OC[C@@H]3CCCN3C)nc3c2CN(c2cccc4cccc(C)c24)C3)C[C@@H]1CC#N [Example 28, 2-((S)-1-acryloyl-4-(6-(8-methylnaphthalen-1-yl)-2-(((S)-1-methylpyrrolidin-2-yl)methoxy)-6,7-dihydro-5H-pyrrolo[3,4-d]pyrimidin-4-yl)piperazin-2-yl)acetonitrile] | 178 |
| C=CC(=O)N1CCN(c2nc(OC[C@@H]3CCCN3C)nc3c2CN(C(=O)c2cc(O)cc4ccccc24)C3)C[C@@H]1CC#N [Example 29, 2-((S)-1-acryloyl-4-(6-(3-hydroxy-1-naphthoyl)-2-(((S)-1-methylpyrrolidin-2-yl)methoxy)-6,7-dihydro-5H-pyrrolo[3,4-d]pyrimidin-4-yl)piperazin-2-yl)acetonitrile] | 2.42 |
| C=CC(=O)N1CCN(c2nc(OC[C@@H]3CCCN3C)nc3c2CN(C(=O)c2cccc4cccc(Cl)c24)C3)C[C@@H]1CC#N [Example 30, 2-((S)-1-acryloyl-4-(6-(8-chloro-1-naphthoyl)-2-(((S)-1-methylpyrrolidin-2-yl)methoxy)-6,7-dihydro-5H-pyrrolo[3,4-d]pyrimidin-4-yl)piperazin-2-yl)acetonitrile] | 15 |
| C=CC(=O)N1CCN(c2nc(OC[C@@H]3CCCN3C)nc3c2CN(C(=O)c2c(C)ccc4[nH]ncc24)C3)C[C@@H]1CC#N [Example 31, 2-((S)-1-acryloyl-4-(6-(5-methyl-1H-indazole-4-carbonyl)-2-(((S)-1-methylpyrrolidin-2-yl)methoxy)-6,7-dihydro-5H-pyrrolo[3,4-d]pyrimidin-4-yl)piperazin-2-yl)acetonitrile] | 301 |
| C=CC(=O)N1CCN(c2nc(OC[C@@H]3CCCN3C)nc3c2CN(C(=O)c2cccc4ccccc24)C3)C[C@@H]1CC#N [Example 32, 2-((S)-4-(6-(1-naphthoyl)-2-(((S)-1-methylpyrrolidin-2-yl)methoxy)-6,7-dihydro-5H-pyrrolo[3,4-d]pyrimidin-4-yl)-1-acryloylpiperazin-2-yl)acetonitrile] | 39.5 |
| C=CC(=O)N1CCN(c2nc(OC[C@@H]3CCCN3C)nc3c2CN(C(=O)c2cccc4cccc(C)c24)C3)C[C@@H]1CC#N [Example 33, 2-((S)-1-acryloyl-4-(6-(8-methyl-1-naphthoyl)-2-(((S)-1-methylpyrrolidin-2-yl)methoxy)-6,7-dihydro-5H-pyrrolo[3,4-d]pyrimidin-4-yl)piperazin-2-yl)acetonitrile] | 22.4 |
| C=CC(=O)N1CCN(c2nc(OC[C@@H]3CCCN3C)nc3c2CN(C(=O)c2c(C)ccc4ccccc24)C3)C[C@@H]1CC#N [Example 34, 2-((S)-1-acryloyl-4-(6-(2-methyl-1-naphthoyl)-2-(((S)-1-methylpyrrolidin-2-yl)methoxy)-6,7-dihydro-5H-pyrrolo[3,4-d]pyrimidin-4_yl)piperazin-2-yl)acetonitrile] | 505 |
| C=CC(=O)N1CCN(c2nc(OC[C@@H]3CCCN3C)nc3c2CN(C(=O)c2cccc4cccc(C5CC5)c24)C3)C[C@@H]1CC#N [Example 35, 2-((S)-1-acryloyl-4-(6-(8-cyclopropyl-1-naphthoyl)-2-(((S)-1-methylpyrrolidin-2-yl)methoxy)-6,7-dihydro-5H-pyrrolo[3,4-d]pyrimidin-4-yl)piperazin-2-yl)acetonitrile] | 256 |
| C=CC(=O)N1CCN(c2nc(OC[C@@H]3CCCN3C)nc3c2CN(C(=O)c2c(O)cccc2F)C3)C[C@@H]1CC#N [Example 36, 2-((S)-1-acryloyl-4-(6-(2-fluoro-6-hydroxybenzoyl)-2-(((S)-1-methylpyrrolidin-2-yl)methoxy)-6,7-dihydro-5H-pyrrolo[3,4-d]pyrimidin-4-yl)piperazin-2-yl)acetonitrile] | 238 |
| C=CC(=O)N1CCN(c2nc(OC[C@@H]3CCCN3C)nc3c2CN(C(=O)c2cccc(C)c2Cl)C3)C[C@@H]1CC#N [Example 37, 2-((S)-1-acryloyl-4-(6-(2-chloro-3-methylbenzoyl)-2-(((S)-1-methylpyrrolidin-2-yl)methoxy)-6,7-dihydro-5H-pyrrolo[3,4-d]pyrimidin-4-yl)piperazin-2-yl)acetonitrile] | 27.9 |
| C=CC(=O)N1CCN(c2nc(OC[C@@H]3CCCN3C)nc3c2CN(C(=O)Nc2cccc4ccccc24)C3)C[C@@H]1CC#N [Example 38, 4-((S)-4-acryloyl-3-(cyanomethyl)piperazin-1-yl)-2-(((S)-1-methylpyrrolidin-2-yl)methoxy)-N-(naphthalen-1-yl)-5,7-dihydro-6H-pyrrolo[3,4-d]pyrimidine-6-carboxamide] | 1570 |
| C=CC(=O)N1CCN(c2nc(OC[C@@H]3CCCN3C)nc3c2CN(C2c4ccccc4-c4ccccc42)C3)C[C@@H]1CC#N [Example 40, 2-((S)-4-(6-(9H-fluoren-9-yl)-2-(((S)-1-methylpyrrolidin-2-yl)methoxy)-6,7-dihydro-5H-pyrrolo[3,4-d]pyrimidin-4-yl)-1-acryloylpiperazin-2-yl)acetonitrile] | 1510 |
| C=CC(=O)N1CCN(c2nc(OC[C@@H]3CCCN3C)nc3c2CN(Cc2c(C)ccc4[nH]ncc24)C3)C[C@@H]1CC#N [Example 41, 2-((S)-1-acryloyl-4-(6-((5-methyl-1H-indazol-4-yl)methyl)-2-(((S)-1-methylpyrrolidin-2-yl)methoxy)-6,7-dihydro-5H-pyrrolo[3,4-d]pyrimidin-4-yl)piperazin-2-yl)acetonitrile] | 77.2 |
| C=CC(=O)N1CCN(c2nc(OC[C@@H]3CCCN3C)nc3c2CN(Cc2c(O)ccc4ccccc24)C3)C[C@@H]1CC#N [Example 42, 2-((S)-1-acryloyl-4-(6-((2-hydroxynaphthalen-1-yl)methyl)-2-(((S)-1-methylpyrrolidin-2-yl)methoxy)-6,7-dihydro-5H-pyrrolo[3,4-d]pyrimidin-4-yl)piperazin-2-yl)acetonitrile] | 9980 |
| C=CC(=O)N1CCN(c2nc(OC[C@@H]3CCCN3C)nc3c2CN(Cc2ccccc2)C3=O)C[C@@H]1CC#N [Example 44] | 9010 |
| C=CC(=O)N1CCN(c2nc(OC[C@@H]3CCCN3C)nc3c2CN(C2CCc4ccccc42)C3)C[C@@H]1CC#N (some centres unmarked) [Example 45] | 12.6 |
| C=CC(=O)N1CCN(c2nc(OC[C@@H]3CCCN3C)nc3c2CN(C(=O)c2cc(O)ccc2F)C3)C[C@@H]1CC#N [Example 46] | 172 |
| C=CC(=O)N1CCN(c2nc(OC[C@@H]3CCCN3C)nc3c2CN(C(=O)c2cc(O)ccc2C)C3)C[C@@H]1CC#N [Example 47] | 102 |
| C=CC(=O)N1CCN(c2nc(OC[C@@H]3CCCN3C)nc3c2CN(C(=O)c2cc(N)cc4ccccc24)C3)C[C@@H]1CC#N [Example 50] | 6.16 |
| C=CC(=O)N1CCN(c2nc(OC[C@@H]3C[C@@H](O)CN3C)nc3c2CN(C2Cc4cccc5cccc2c45)C3)C[C@@H]1CC#N (some centres unmarked) [Example 51] | 16.1 |

Reference: patent US12630552B2, “Inhibitors of KRAS G12C” (BEIGENE, LTD., priority 2019, dated 2026)
